Values joined by “and” are separate entries in the source; they are usually repeats but may differ in a detail not shown here. Equal entries are not always repeated.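 Exposure lasted 48 hours, with cells grown in 96-well plates and compounds tested at five concentrations. GI50 is the concentration that inhibits growth by half. TGI denotes the concentration required for complete inhibition of growth.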
Assays:
Assay in all cases: inhibition of tumour cell growth, NCI panel, 48 h
MDA-MB-435 = test system: MDA-MB-435
M14 melanoma = test system: M14 melanoma
UACC-62 melanoma = test system: UACC-62 melanoma
MCF7 breast = test system: MCF7 breast
HS 578T breast = test system: HS 578T breast
SNB-75 CNS = test system: SNB-75 CNS
K-562 leukemia = test system: K-562 leukemia
ACHN renal = test system: ACHN renal
SN12C renal = test system: SN12C renal
HL-60(TB) leukemia = test system: HL-60(TB) leukemia

Structure (SMILES): N#CC(Cc1ccccc1)N(CCC1=CCCCC1)C(c1ccccc1)c1ccccc1 (configuration not stated)
- TGI (MDA-MB-435): > 100 µM
- TGI (M14 melanoma): > 100 µM
- TGI (UACC-62 melanoma): > 100 µM
- TGI (MCF7 breast): > 100 µM
- TGI (HS 578T breast): > 100 µM
- TGI (SNB-75 CNS): > 100 µM
- TGI (K-562 leukemia): > 100 µM
- TGI (ACHN renal): > 100 µM

Structure (SMILES): COc1ncc(/C=C2\OC(=O)c3ccccc32)c(OC)n1
- TGI (MDA-MB-435): > 100 µM
- TGI (M14 melanoma): > 100 µM
- TGI (MCF7 breast): > 100 µM
- TGI (HS 578T breast): > 100 µM
- TGI (SNB-75 CNS): 47.3 µM
- TGI (K-562 leukemia): > 100 µM
- TGI (ACHN renal): > 100 µM
- TGI (SN12C renal): > 100 µM
- TGI (HL-60(TB) leukemia): > 100 µM

Structure (SMILES): O=C(OCc1ccccc1)N1CCNCCN(C(=O)OCc2ccccc2)CCNCC1
- TGI (MDA-MB-435): 64.6 µM
- TGI (UACC-62 melanoma): 70.3 µM
- TGI (MCF7 breast): 38.8 µM
- TGI (HS 578T breast): 54.5 µM
- TGI (SNB-75 CNS): 85.2 µM
- TGI (K-562 leukemia): > 100 µM
- TGI (ACHN renal): > 100 µM
- TGI (SN12C renal): > 100 µM
- TGI (HL-60(TB) leukemia): 93.4 µM

Structure (SMILES): COc1ccc2cc1Oc1ccc(cc1)C[C@H]1c3cc(c(OC)cc3CCN1C)Oc1c(O)c(OC)cc3c1[C@H](C2)N(C)CC3
- TGI (UACC-62 melanoma): 44.7 µM
- TGI (MCF7 breast): 51.5 µM
- TGI (SNB-75 CNS): 52 µM
- TGI (K-562 leukemia): 83.5 µM
- TGI (SN12C renal): 88.8 µM
- TGI (HL-60(TB) leukemia): 48.2 µM

Structure (SMILES): Cc1ccc(-c2cc(-c3ccco3)c(C#N)c(=S)n2C2OC(CO)C(O)C(O)C2O)cc1 (configuration not stated)
- TGI (MDA-MB-435): > 100 µM
- TGI (M14 melanoma): 68.2 µM and 75.7 µM
- TGI (UACC-62 melanoma): 13.3 µM and > 100 µM
- TGI (MCF7 breast): > 100 µM
- GI50 (HS 578T breast): 14.8 µM and 33.2 µM
- TGI (HS 578T breast): > 100 µM
- TGI (SNB-75 CNS): > 100 µM
- TGI (K-562 leukemia): > 100 µM
- GI50 (ACHN renal): 25.6 µM and 53.4 µM
- TGI (ACHN renal): > 100 µM
- GI50 (SN12C renal): 20.6 µM and > 100 µM
- TGI (SN12C renal): > 100 µM

Structure (SMILES): CC1CN(C)c2ccccc2N=C1NN (configuration not stated)
- TGI (MDA-MB-435): > 100 µM
- TGI (M14 melanoma): > 100 µM
- TGI (UACC-62 melanoma): > 100 µM
- TGI (HS 578T breast): > 100 µM
- TGI (K-562 leukemia): > 100 µM
- TGI (ACHN renal): > 100 µM
- TGI (SN12C renal): > 100 µM
- TGI (HL-60(TB) leukemia): > 100 µM

Structure (SMILES): C=C1CCN2CC[C@@H](OC(=O)/C(C)=C\C)[C@@H]12
- TGI (MDA-MB-435): > 100 µM
- TGI (M14 melanoma): > 100 µM
- TGI (UACC-62 melanoma): > 100 µM
- TGI (MCF7 breast): > 100 µM
- TGI (HS 578T breast): > 100 µM
- TGI (SNB-75 CNS): > 100 µM
- TGI (K-562 leukemia): > 100 µM
- TGI (ACHN renal): > 100 µM
- TGI (SN12C renal): > 100 µM

Structure (SMILES): O=C1c2cc3c(cc2-c2c1c1ccc(F)cc1c(=O)n2C[C@H](O)[C@@H](O)[C@H](O)CO)OCO3
- GI50 (MDA-MB-435): 0.112 µM
- TGI (MDA-MB-435): 0.279 µM
- GI50 (M14 melanoma): 0.0443 µM
- TGI (M14 melanoma): 0.599 µM
- GI50 (UACC-62 melanoma): 0.025 µM
- TGI (UACC-62 melanoma): 0.123 µM
- GI50 (MCF7 breast): 0.0119 µM
- TGI (MCF7 breast): 0.151 µM
- GI50 (K-562 leukemia): 0.0645 µM
- TGI (K-562 leukemia): > 100 µM

Structure (SMILES): O=C(Cc1ccc(O)c(O)c1)NCc1c[nH]c2ccccc12
- TGI (M14 melanoma): > 100 µM
- TGI (MCF7 breast): > 100 µM
- TGI (HS 578T breast): > 100 µM
- TGI (SNB-75 CNS): > 100 µM
- TGI (K-562 leukemia): > 100 µM
- TGI (HL-60(TB) leukemia): 85.7 µM

Structure (SMILES): COc1ccc(-n2c(C)nc3ccc(NC(=S)Nc4ccccc4)cc3c2=O)cc1
- TGI (MDA-MB-435): > 100 µM
- TGI (UACC-62 melanoma): > 100 µM
- TGI (MCF7 breast): > 100 µM
- TGI (HS 578T breast): > 100 µM
- TGI (SNB-75 CNS): > 100 µM
- TGI (K-562 leukemia): > 100 µM
- TGI (ACHN renal): > 100 µM
- TGI (SN12C renal): > 100 µM
- TGI (HL-60(TB) leukemia): > 100 µM

Structure (SMILES): COc1ccc(/C=c2\sc3n(c2=O)CCN=3)cc1
- TGI (M14 melanoma): > 100 µM
- TGI (UACC-62 melanoma): > 100 µM
- TGI (SNB-75 CNS): > 100 µM
- TGI (K-562 leukemia): > 100 µM
- TGI (ACHN renal): > 100 µM
- TGI (SN12C renal): > 100 µM
- TGI (HL-60(TB) leukemia): > 100 µM

Structure (SMILES): O=C(c1ccccn1)C1(N2CCCCC2)CCCCC1
- TGI (MDA-MB-435): > 100 µM
- TGI (M14 melanoma): > 100 µM
- TGI (UACC-62 melanoma): > 100 µM
- TGI (MCF7 breast): > 100 µM
- TGI (HS 578T breast): 39.5 µM
- TGI (K-562 leukemia): > 100 µM
- TGI (ACHN renal): > 100 µM
- TGI (SN12C renal): > 100 µM
- TGI (HL-60(TB) leukemia): > 100 µM

Reference: PubChem BioAssay (NCI)
